{"source": "patent US11497776B2", "about": "“Combination therapy for a stable and long term engraftment” (Yeda Research and Development Co. Ltd., priority 2011, dated 2022)", "key": {"[1]": {"tested_on": "C3H/Hen recipients of T cell depleted BM and high dose CY", "procedure": "Donor (Balb/c) and 3rd party (C57BL/6) skin grafts were transplanted to the mixed chimeric recipients as described above [i.e. to those mice which were previously transplanted with mega dose (25×10^6) T cell depleted BM and were treated with high dose CY] and to the recipient mice that were inoculated with a regular (5×10^6) T cell depleted BM cell dose and were treated with high dose CY.\nTolerance induction was measured by transplantation of donor (Balb/c) and 3rd party (C57BL/6) skin grafts to the mixed chimeric recipients that were transplanted with mega dose (25×10^6) T cell depleted BM and were treated with high dose CY (as described above), in comparison to the recipients that were inoculated with a regular (5×10^6) T cell depleted BM cell dose (as described above)."}, "[2]": {"tested_on": "allogeneic recipients (C3H/Hen) transplanted with Balb/c-Nude BM cells", "procedure": "(§1) Low (5×10^6) and high dose (25×10^6) Balb/c-Nude BM cells (providing a source of BM depleted of T cells) were transplanted into allogeneic recipients (C3H/Hen) on day 0 following in-vivo T cell debulking (TCD) with anti-CD4 (clone GK1.5) and anti-CD8 (clone 53.6.72) antibodies (300 μg each; Bio X Cell, NH, USA) delivered on day −6, and exposure to 2.0 Gy total body irradiation (TBI) on day −1. High dose Cyclophosphamide (CY, 100 mg/kg, Baxter Oncology, Germany) was administered on days +3 and +4 post transplant and donor type chimerism was evaluated 35 and 95 days post transplant using fluorescein anti-host and donor H-2 antibodies (e.g. FlTC labeled anti-H-2D^d antibody specific for donor type cells and PE labeled anti-H-2K^k antibody specific for host type cells).\nRecipient mice (C3H/Hen) were treated with a conditioning protocol prior to transplantation of a T cell depleted bone marrow transplant. Specifically, mice were in-vivo treated with T cell debulking (TCD) using anti-CD4 and anti-CD8 antibodies delivered on day −6 and by exposure to 2.0 Gy total body irradiation (TBI) on day −1. Next, low (5×10^6) or high dose (25×10^6) Balb/c-Nude BM cells (providing a source of BM depleted of T cells, as Nude mice have miniscule numbers of mature T cells) were transplanted into allogeneic recipients (C3H/Hen) on day 0. High dose cyclophosphamide (CY, 100 mg/kg) was administered on days +3 and +4 post transplant. Evaluation of bone marrow cell engraftment was evaluated by donor type chimerism at 35 and 95 days post transplant.\nas §1, with “High” for “Low (5×10^6) and high”, “different doses of irradiation ranging from 1 to 3.5” for “2.0”, “TBI” for “total body irradiation (TBI)”, “30” for “35 and 95”\nHigh dose Cyclophosphamide (CY) was administered on days +3 and +4 post transplant and donor type chimerism was evaluated at 30 days post transplant.\nas §1, with “High dose” for “Low (5×10^6) and high dose”, “−1. Different doses of” for “−1. High dose”, “mg/kg, 125 mg/kg or 150 mg/kg,” for “mg/kg,”, “Germany) were” for “Germany) was”, “evaluated 30” for “evaluated 35 and 95”"}, "[3]": {"conditions": "1.0 Gy TBI, 25×10^6 BM, CY 100 mg/kg days +3 and +4, 30 days post transplant"}, "[4]": {"conditions": "2 Gy TBI, 25×10^6 BM, CY 100 mg/kg days +3 and +4, 30 days post transplant"}, "[5]": {"conditions": "2.5, 3 or 3.5 Gy TBI, 25×10^6 BM, CY 100 mg/kg days +3 and +4, 30 days post transplant"}}, "note": "Where two headings read alike, the source gives them in different places."}
{"smiles": "O.O=P1(N(CCCl)CCCl)NCCCO1", "note": "(stereo not drawn) [CY, 2-[bis(2-chloroethyl)amino]tetrahydro-2H-1,3,2-oxazaphosphorine 2-oxide monohydrate]", "values": [{"measurement": "skin graft outcome", "setting": "[1]; 5×10^6 T cell depleted BM cells and CY", "value": "rejected both the donor and 3rd party skin grafts"}, {"measurement": "chimeric mice that accepted the donor graft and rejected the 3rd party skin grafts", "setting": "[1]; 25×10^6 T cell depleted BM + high dose CY days +3 and +4", "value": "three out of 4"}, {"measurement": "effect of increasing CY dose on chimerism", "setting": "[2]; 125 mg/kg or 150 mg/kg versus 100 mg/kg, 25×10^6 BM, 2 Gy TBI, 30 days post transplant", "value": "did not provide a significant enhancement of chimerism"}, {"measurement": "donor type chimerism range", "setting": "[2]; [3]", "value": "14.5-58%"}, {"measurement": "percentage of chimeric mice", "setting": "[2]; [3]", "value": 83, "unit": "%"}, {"measurement": "donor type chimerism range", "setting": "[2]; [4]", "value": "56-85%"}, {"measurement": "percentage of mice exhibiting donor type chimerism", "setting": "[2]; [4]", "value": 87, "unit": "%"}, {"measurement": "chimeric recipient mice", "setting": "[2]; [5]", "value": "6/6"}, {"measurement": "donor type chimerism range", "setting": "[2]; [5]", "value": "58-83%"}, {"measurement": "mixed chimerism at long term follow-up", "setting": "[2]; 5×10^6 T cell depleted BM + CY, 180 and 225 days post transplant", "value": "did not exhibit mixed chimerism"}, {"measurement": "effect of CD8+ cell depletion of the BM preparation on level of chimerism", "setting": "[2]; 25×10^6 CD8 depleted vs non-depleted Balb/c-Nude BM, CY 100 mg/kg days +3 and +4, 2.0 Gy TBI, 30 days post transplant", "value": "did not have any adverse impact"}, {"measurement": "chimerism at long term follow-up", "setting": "[2]; 25×10^6 T cell depleted BM + high dose CY, 180 and 225 days post transplant", "value": "stable and durable"}, {"measurement": "mice in which durable mix chimerism was achieved", "setting": "[2]; 25×10^6 T cell depleted BM, CY 100 mg/kg days +3 and +4, TCD day −6, 2.0 Gy TBI day −1, day 35 and day 95", "value": "4 out of 7"}, {"measurement": "average donor type chimerism", "setting": "[2]; CY 100 mg/kg days +3 and +4, 25×10^6 BM, 2 Gy TBI, 30 days post transplant", "value": "57.5±25.8"}, {"measurement": "average donor type chimerism", "setting": "[2]; CY 125 mg/kg days +3 and +4, 25×10^6 BM, 2 Gy TBI, 30 days post transplant", "value": "66.5±20.6"}, {"measurement": "average donor type chimerism", "setting": "[2]; CY 150 mg/kg days +3 and +4, 25×10^6 BM, 2 Gy TBI, 30 days post transplant", "value": "67.4±27.4"}, {"measurement": "mice expressing donor type chimerism", "setting": "[2]; control mice: TCD, 2 Gy TBI and optionally CY, no BM, day 35 and day 95", "value": "none"}, {"measurement": "mice expressing donor type chimerism", "setting": "[2]; regular dose 5×10^6 T cell depleted BM, in the presence or absence of cyclophosphamide, TCD, 2 Gy TBI, day 35 and day 95", "value": "none"}]}
